Where two headings read alike, the source gives them in different places.
Method: In vitro permeation study through hairless mouse skin to investigate the skin permeability of clobetasol propionate, amcinonide, betamethasone dipropionate, loteprednol etabonate, dexamethasone, prednisolone acetate and its metabolite (prednisolone).
Steroid patches were prepared according to the following procedure. The steroid (clobetasol propionate, amcinonide, betamethasone dipropionate, loteprednol etabonate, dexamethasone, or prednisolone acetate) was weighed in a clear polypropylene cup. 2 mL of ethyl acetate was added, and dispersed by ultrasonic wave using an ultrasonicator. DURO-TAK® 87-4098 was carefully added in the clear polypropylene cup. The components were mixed using a spatula, and then the lid of the cup was closed to avoid evaporation. A coating bar was adjusted to about 370 μm to control the thickness. The product material was carefully dispensed onto release liner near the coating bar. The coating process was started by moving the coating bar with the hand. The coated sheet was transferred to the oven and heated at 80° C. for 10±1 minutes. The dried sheet was removed from the oven, and laminated with the polyethylene terephthalate film. The thickness of the patch was checked.
The abdominal skin of 6 hairless, 8 week old, female mice were used for in vitro skin permeation experiment. (Horizontal cell, effective volume: 5 mL, effective area: 0.64 cm^2). […] The experimental temperature was controlled at 37° C., and 400 μL it of receptor solution was sampled at 1, 2, 3, 4, 5, 6, 9, 12, 22, 28, 34 and 48 hours. Thereafter, the same amount of the 40% polyethylene glycol 400 solution was added to the receptor cell. The concentration of each steroid in the sampled receptor solution was analyzed with HPLC.

[1] = female, hairless, mouse, 5 % (steroid in patch)

Structure (SMILES)	lag-time, times shorter than dexamethasone [1] [times]	lag-time, times shorter than prednisolone [1] [times]	steady-state penetration rate, times higher than that of dexamethasone [1] [times]	steady-state penetration rate, times higher than that of prednisolone [1] [times]	lag-time, times shorter than dexamethasone [times]	lag-time, times shorter than prednisolone [times]	steady-state penetration rate, times higher than that of dexamethasone [times]	steady-state penetration rate, times higher than that of prednisolone [times]
CCC(=O)O[C@]1(C(=O)CCl)[C@@H](C)C[C@H]2[C@@H]3CCC4=CC(=O)C=C[C@]4(C)[C@@]3(F)[C@@H](O)C[C@@]21C [clobetasol, clobetasol propionate]	6	7	8	14	–	–	–	–
CCC(=O)OCC(=O)[C@@]1(OC(=O)CC)[C@@H](C)C[C@H]2[C@@H]3CCC4=CC(=O)C=C[C@]4(C)[C@@]3(F)[C@@H](O)C[C@@]21C [betamethasone, betamethasone dipropionate]	–	–	–	–	3	4	3	6
CCOC(=O)O[C@]1(C(=O)OCCl)CC[C@H]2[C@@H]3CCC4=CC(=O)C=C[C@]4(C)[C@H]3[C@@H](O)C[C@@]21C [loteprednol, loteprednol etabonate]	4	5	7	12	–	–	–	–
CC(=O)OCC(=O)[C@@]12OC3(CCCC3)O[C@@H]1C[C@H]1[C@@H]3CCC4=CC(=O)C=C[C@]4(C)[C@@]3(F)[C@@H](O)C[C@@]12C [amcinonide]	4	5	10	20	–	–	–	–
